# Test system: mouse ADAMTS7
# Test: TMT10 TAILS N-terminomics, HUVEC experiment (process replicates, trypsin/AspN digest)
# Format: cell-based, human
# Conditions: HUVEC TAILS HC; log fold change of N-terminal peptide, Ad-mADAMTS7 WT over EQ
# How it was run: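 Full-length mouse ADAMTS7 (WT or E373Q mutant, C-terminal 3xFLAG) or luciferase was transduced via adenovirus, 50 MOI, into HCA-SMC (SMC1, SMC2) or HUVEC. SMC1: pooled media, technical triplicates 400 ug; SMC2: process triplicates 300 ug; HUVEC: process triplicates 200 ug, bFGF2 10 ng/ml.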
row,Substance,logFC.mWT.over.mEQ
1,COL18A1_1505 (LQPPVVQLHDSNPYPR; listed as Homo sapiens),3.88
2,LTBP2_79 (VAGLQPVER; listed as Homo sapiens),1.51
3,LTBP2_250 (SAAGEGTLAR; listed as Homo sapiens),1.71
4,LTBP2_502 (LVENSVETRPPPWLPASPGHSLW; listed as Homo sapiens),2.68
5,LTBP3_208 (FLVPLGPGQISA; listed as Homo sapiens),2.14
6,MAP4_815 (AVASTGPSSR; listed as Homo sapiens),2.51
7,MAP4_816 (VASTGPSSR; listed as Homo sapiens),2.05
8,NID1_360 (FHQQHPQVI; listed as Homo sapiens),1.78
9,NID2_291 (HSSVPLGR; listed as Homo sapiens),2.90
10,NUCB1_317 (FLASTQR; listed as Homo sapiens),2.65
11,NUCB1_389 (LQQAVLHMEQR; listed as Homo sapiens),1.54
12,SERBP1_56 (QAAAQTNSNAAGKQLR; listed as Homo sapiens),1.43
13,SPOCK1_27 (LAGGAGPNHGNFL; listed as Homo sapiens),1.07
14,SRGN_59 (LLPGESNKIPR; listed as Homo sapiens),1.17
15,THBS2_290 (LSENLKR; listed as Homo sapiens),4.41

# From patent US20240368668A1, “SUBSTRATES AND BIOMARKERS OF ADAMTS7” (The Broad Institute, Inc., priority 2021, published 2024)
